Series [1] is described as follows: Single-dose ECG study in healthy human volunteers (1.6 and 3.2 mg/kg over 30 minutes). The note with it: 3.2 mg/kg infused over 30 minutes. In kind it is in vivo. On the procedure: Based on this, a single-dose ECG-study was conducted in healthy human volunteers, where 1.6 mg/kg and 3.2 mg/kg iclaprim was infused over 30 minutes. […] Maximal increases coincided with Cmax levels and were rapidly reversible. Weight-based dosing with 1.6 mg/kg was thus assessed as acceptable for clinical purposes, whereas weight-based dosing at 3.2 mg/kg was associated with relevant QTc prolongations (>60 msec) and nonspecific T-wave alterations, and was not used for further clinical studies.

In series [2] the test system is methicillin-resistant Staphylococcus aureus (MRSA) isolates. Briefly: Broth microdilution MIC against MRSA nonsusceptible to daptomycin, linezolid or vancomycin. It counts as cell-based. As to the method:
Antibacterial susceptibility testing was conducted on a range of MRSA strains and isolates with varying susceptibilities to several recognized antistaphylococcal antibiotics. Susceptibility testing was performed by broth microdilution in accordance with the Clinical and Laboratory and Standards Institute (CLSI) guidelines. Minimum inhibitory concentrations (MICs) were based on CLSI criteria.
In general terms: In broth dilution the organism is exposed to a series of concentrations in liquid medium.

Series [3] deals with M. catarrhalis. Briefly: MIC with/without bovine pulmonary surfactant, M. catarrhalis. The note with it: for MICRZ, Resazurin: +BPS: 2.5% v/v BPS. It counts as cell-based, Moraxella catarrhalis. As to the method:
Clinical isolates were identified by the submitting laboratories and confirmed by JMI Laboratories using standard bacteriologic algorithms and methodologies, including Matrix-Assisted Laser Desorption Ionization-Time Of Flight Mass Spectrometry (MALDI-TOF MS). When necessary, MALDI-TOF MS was performed using the Bruker Daltonics MALDI Biotyper (Billerica, Mass., USA), following manufacturer's instructions. Isolates selected were bacterial species commonly associated with pneumonia. […] 2.2 Susceptibility testing
Antibacterial susceptibility testing was measured by JMI Labs (North Liberty, Iowa, USA). […] These clinical isolates were collected from US (n=4), Mexico (n=2), and Italy (n=1). Susceptibility testing was performed by broth microdilution in accordance with the Clinical and Laboratory and Standards Institute (CLSI) guidelines M07-A10 (2015) and the standard operating procedures at JMI laboratories. Minimum inhibitory concentrations (MICs) were based on CLSI criteria (2015). There are no published breakpoints for iclaprim. E. coli, K. pneumoniae, M. catarrhalis, E. faecalis, and S. aureus were tested in cation-adjusted Mueller-Hinton broth (CA-MHB). S. pneumoniae were tested in CA-MHB supplemented with 2.5-5% lysed horse blood, and H. influenza were tested in Haemophilus test medium. Quality control and interpretation of results were performed in accordance with CLSI M100-S26 (2016) methods. QC ranges for iclaprim were those approved by CLSI and published in M100-S26 (2016). Iclaprim and comparator antibiotic MIC results were within the CLSI published ranges against E. coli ATCC 25922, E. faecalis ATCC 29212, E. faecalis ATCC 33186, H. influenzae ATCC 49247, K. pneumoniae ATCC 700603 (ESBL phenotype), S. aureus ATCC 29213, and S. pneumoniae ATCC 49619. Isolates were tested with MIC panels (ThermoFisher Scientific, Cleveland, Ohio, USA) of comparator antibiotics (daptomycin and levofloxacin).
Because bovine pulmonary surfactant can introduce cloudiness to the MIC testing media, antimicrobial growth inhibition was also evaluated using the colorimetric metabolic indicator resazurin (Camlab Ltd., Cambridge, UK). […] S. pneumoniae panels were omitted from resazurin analysis because the color change was obscured by the lysed horse blood present in the test medium. Growth inhibition was then evaluated as a visible color change from blue (no growth) to pink (robust growth) and recorded as a MICRZ value.
The MICs of iclaprim, levofloxacin, and daptomycin were determined against Gram-positive and Gram-negative isolates.
A new vial of bovine pulmonary surfactant (BPS; Survanta®; Abbott Laboratories, Columbus, Ohio) was utilized for each independent experiment. Each vial was mixed thoroughly and a 100 μL aliquot was spread on an agar plate, which was incubated overnight to confirm sterility. […] The concentration of surfactant was expressed in terms of percent volume of Survanta® suspension, which consisted of phospholipid (25 mg/mL) and surfactant proteins (<1 mg/mL) in 0.9% sodium chloride solution (Goerke, 1998). MICs of daptomycin were determined in CAMHB with the Ca^2+ content adjusted to 50 mg/L.

In series [4] the test system is isolated rabbit Purkinje fibers.
The test system of series [5] is S. aureus. The note with it: worldwide surveillance studies; cited from earlier work.

≈ marks a conversion by molar mass, not a printed value. A value given as a limit tells only on which side of the number the result lay.

The term MIC denotes the least concentration at which growth counts as inhibited. The MIC50 is an inhibitory concentration at the 50% level, which refers to growth in some studies and to a panel of isolates in others. Low values mean greater potency, high ones weaker potency.

`COc1cc(Cc2cnc(N)nc2N)c2c(c1OC)OC(C1CC1)C=C2` (racemic) [Iclaprim]: in series [1], the QTc prolongations is greater than 60 ms. The MIC in series [2] (Staphylococcus aureus, MRSA, read-out: MIC to the majority of MRSA isolates) was no more than 1 µg/mL; in series [3] (Moraxella catarrhalis, M. catarrhalis Clinical Isolate 893806, no BPS), 4 µg/mL (≈ 11.3 µM). Also, the MIC50 in series [2] (Staphylococcus aureus, 59 MRSA isolates) was 0.25 µg/mL (≈ 0.705 µM). In addition, the “MRSA isolates with iclaprim MIC ≤1 μg/ml” value in series [2] (isolates nonsusceptible to linezolid (25 of 25)) is on record as 100%. Also, in series [2] (nine of 59 MRSA isolates), the “isolates with reduced susceptibility, MICs >8 μg/mL” value was 15.2%. Also, the “MICRZ, Resazurin: +BPS” value in series [3] (M. catarrhalis Clinical Isolate 893806) worked out at 8 µg/mL; in series [3] (M. catarrhalis Clinical Isolate 893807) it was 4 µg/mL. Also, the “MICRZ, Resazurin” value in series [3] (M. catarrhalis Clinical Isolate 893806, no BPS) was determined as 4 µg/mL; in series [3] (M. catarrhalis Clinical Isolate 893807, no BPS) it was 4 µg/mL. Also, the “iclaprim concentrations at which action potential duration was increased” value in series [4] was “above 1 μM”. In series [5], the “MIC90 of S. aureus” value was 0.12 µg/mL.

(Values after patent publication US10080751B2, “Systems and methods for treating bacterial infection” (priority 2016, dated 2018).)
